These results are taken from patent US20170112784A1, “Method and Medicament for Pain Management” (priority 2007, published 2017).

Assay [1] relates to horses. Nature of the assay: Trial of methoxyflurane administered to horses at the end of anaesthesia to modify recovery. Also noted: 1st Movt / Stern. / Stnd / Atax / Walk out: unit not given here. The format is in vivo, horse. How it is done:
Trial of methoxyflurane administered to horses at the end of anaesthesia, attempting to modify recovery:
[…] Horses recovering from isoflurane typically attempt to stand in 10 to 15 minutes, usually fall down and try to get back up 2 or 3 times (sometimes violent, resulting in injuries from skin abrasions to fractured limbs) and are then standing 15 to 20 minutes after anaesthetic administration ceased. […] Halothane recoveries are less violent and result in less likelihood of injury.
Initially trials were also performed in anattempt to determine the dose and duration of MOF administration that would result in improved quality of recovery.
The last 8 horses were administered with ever lower doses of MOF for less time with better results (see table below). […] The lowest dose produced a good result.

Assay [2] relates to horses. As to conditions: typical; cited from earlier work.
Where [3] appears, read: horse 338 kgs, 30 Mins. HAL anaesthesia, Methoxy volume not given.
The mark [4] stands for this setting: horse 492 kgs, 90 Mins. HAL anaesthesia, Methoxy volume not given.
Where [5] appears, read: horse 472 kgs, 130 Mins. ISO anaesthesia, Methoxy volume not given.
The mark [6] stands for this setting: horse 332 kgs, 135 Mins. ISO anaesthesia, Methoxy total 200 ml.
Setting [7] is: horse 462 kgs, 135 Mins. ISO anaesthesia, Methoxy total 350 ml.
[8] abbreviates: horse 470 kgs, 85 Mins. ISO anaesthesia, Methoxy total 210 ml.
Setting [9] is: horse 492 kgs, 75 Mins. ISO anaesthesia, Methoxy total 540 ml.
Setting [10] is: horse 580 kgs, 16O Mins. ISO anaesthesia, Methoxy total 300 ml.

For `FC(F)(F)C(Cl)Br` (centres unmarked) [HAL, halothane], in the assay on horses [1] (setting [3]), the “1st Movt” value was 27, the Atax result is “Fell”, the Comments result is listed as “Stood/fell x 3” and the Stern. worked out at 30. In the assay on horses [1] (setting [3]), this molecule displayed a Stnd of 31 and a Walk out of 55. Also, in the assay on horses [1] (setting [4]), the “1st Movt” value was determined as 30, the Atax was determined as 75, the Comments entry is “Poor - flip over” and the Stern. is reported as 50(2). In the assay with horses [1] (setting [4]), this molecule returned a Stnd of 65 and a Walk out of 85. For the same molecule, in the assay on horses [2], the “recovery duration in comparison with isoflurane” value is recorded as “twice as long as isoflurane”.

On to `FC(F)OC(Cl)C(F)(F)F` (centres unmarked) [ISO, isoflurane], for which, in the assay with horses [1] (setting [5]), the “1st Movt” value turned out to be 23, the Atax stood at 78, the Comments entry was “Try stand at 23” and the Stern. is 32. In the assay with horses [1] (setting [5]), this molecule gave a Stnd of 63 and a Walk out of 100.

In the case of `COC(F)(F)C(Cl)Cl` [Methoxy, methoxyflurane], the “1st Movt” value in the assay with horses [1] (setting [6]) came to 17; in the assay on horses [1] (setting [7]), 48; in the assay with horses [1] (setting [8]), 5; with horses [1] (setting [9]), 50; in the assay with horses [1] (setting [10]) it was 37. Besides, the Atax came to 30 in the assay with horses [1] (setting [6]); 59 in the assay on horses [1] (setting [7]); 35 with horses [1] (setting [8]); 85 in the assay with horses [1] (setting [9]); 85 in the assay with horses [1] (setting [10]). In addition, the Comments result in the assay on horses [1] (setting [6]) was “Good”; with horses [1] (setting [7]), “Still 45 mm then”; in the assay with horses [1] (setting [8]), 10x wobble then; with horses [1] (setting [9]) it was “Stood 69- fell”. The Stern. in the assay on horses [1] (setting [6]) is on record as 25; with horses [1] (setting [8]), 14; in the assay on horses [1] (setting [9]), 60; in the assay with horses [1] (setting [10]), 60. For the same molecule, the Stnd in the assay with horses [1] (setting [6]) was determined as 26; with horses [1] (setting [7]), 49; in the assay with horses [1] (setting [8]) it was 29; in the assay with horses [1] (setting [9]), 75; in the assay with horses [1] (setting [10]), 61. Also, the Walk out stood at 41 in the assay on horses [1] (setting [6]); 75 with horses [1] (setting [7]); 55 in the assay with horses [1] (setting [8]); 100 with horses [1] (setting [9]); 90 in the assay with horses [1] (setting [10]). The quality of recovery result with horses [1] (initial trials (higher dose, longer administration), horses after isoflurane anaesthesia) is “long recoveries with marked ataxia”; in the assay with horses [1] (last 8 horses, ever lower doses for less time), “less ataxia and a better quality recovery”; in the assay on horses [1] (lowest dose, last horse), “good result”.
